Test results as given in US11865506B2, “Pyraclostrobin microcapsule based on sodium alginate and preparation method” (ANHUI AGRICULTURAL UNIVERSITY, priority 2022, dated 2024).
In brackets after ≈: the same amount, converted by molar mass. Where two headings read alike, the source gives them in different places.

Assays:
[1] = organic solvent; cited from earlier work
[2] = Cold and hot storage stability; type: physicochemical; details: for Stability / decomposition rate on cold storage: stored at 4° C. and −20° C.
Source text: (§1) The cold storage stability, hot storage stability, and photostability are experimented respectively.

[3] = 25° C., cited from earlier work
[4] = test system: Fusarium pseudograminearum; test: microbe, parasite or virus in culture; type: cell-based
Method: By mycelium growth rate method, the fungicidal activity of pyraclostrobin original drug and the prepared pyraclostrobin SA microcapsules against Fusarium pseudograminearum is determined, and the release rule of the microcapsules in the culture medium is determined.
Inclined experiment tube storage method: inoculate the strain of Fusarium pseudograminearum on a PDA plate for activation treatment, place the plate in a constant temperature incubator at 25° C. after sealing, and incubate for 3 days. Pick out the edge bacteria, transfer to a PDA slant experiment tube, and cultivate at a constant temperature at 25° C. until the colonies cover the surface of the slant, then put the experiment tube into a 4° C. refrigerator for storage until use. […]
Activate the Fusarium pseudograminearum on a drug-free PDA plate in advance, after culturing at 25° C. for 3 days, beat the fungus cake along the edge of the colony, pick the fungus cake with an inoculation needle every 0, 4, 8, 12, and 16 days and transfer it reversely to the center of the drug-containing medium; seal and store the culture dish, and place in a constant temperature incubator at 25° C. for cultivation. After each cultivation for 3 days, the diameter of the colony is measured by the cross method, and the average value is used to calculate the antibacterial rate as follows. […]

[5] = Photostability under ultraviolet light; type: physicochemical
Source text: as §1
Determination of the active ingredient residual concentration of the original drug and microcapsules under the same ultraviolet light conditions, the results are shown in Table 15.

| SMILES | Toxicity [1] | Decomposition rate ([2]; storage at 25° C. for 30 days) [%] | Decomposition rate ([2]; storage at 54° C. for 30 days) [%] | Stability / decomposition rate on cold storage [2] | Stability / decomposition rate on cold storage ([2]; listed as pyraclostrobin original drug) | Solubility to original drug ([3]; in acetone) [g/100 mL] | Solubility to original drug ([3]; in ethanol) [g/100 mL] | Solubility to original drug ([3]; in ethyl acetate) [g/100 mL] | Solubility to original drug ([3]; in methanol) [g/100 mL] | EC50 [4] [µg/mL] | Photolysis rate constant ([5]; Ct = C0 × e^−kt) | Residual concentration of the active ingredient ([5]; final time of 60 minutes) [µg/mL] | Photolysis half life ([5]; first-level kinetic equation) [min] | half-life at 9.986 μg/mL ([5]; first-level kinetic equation, read-out: Photolysis half life) [min] |
| --- | --- | --- | --- | --- | --- | --- | --- | --- | --- | --- | --- | --- | --- | --- |
| CCOC(C)=O [Ethyl acetate] | Low |  |  |  |  |  |  |  |  |  |  |  |  |  |
| COC(=O)N(OC)c1ccccc1COc1ccn(-c2ccc(Cl)cc2)n1 [Original drug, pyraclostrobin] |  | 2.2 | 40.25 | better stability | extremely low | ≥65 | ≥10 | ≥65 | ≥10 | 0.097 (≈ 0.25 µM) | 0.03 | 1.384 | 21.01 | 21 |
| CC(C)=O [Acetone] | Low |  |  |  |  |  |  |  |  |  |  |  |  |  |
